# Assay results taken from BindingDB's records for doi:10.1021/jm0500875 (Pfizer, 2005).
# Where a name gives a salt, the structure may show the parent alone.
# Assays:
# Assay in all cases: Enzyme Inhibition Assay
# [1] = target: Stromelysin-1 (Homo sapiens, UniProt P08254)
# Method: (§1) Inhibitors were assayed against purified hMMP-1, hMMP-2, hMMP-3, hMMP-8, hMMP-9, and hMMP-13 using an enzyme assay based on cleavage of the quenched fluorogenic peptide substrate. The increase in fluorescence due to cleavage of the substrate was measured with a fluorescence microplate reader. The Ki values were calculated by nonlinear regression analysis using the percent inhibition, and Km values of the substrates for each MMP.
# [2] = target: Neutrophil collagenase (Homo sapiens, UniProt P22894)
# Method: as §1
# [3] = target: T1, Interstitial collagenase (Homo sapiens, UniProt P03956)
# T1 sequence (P03956 whole entry): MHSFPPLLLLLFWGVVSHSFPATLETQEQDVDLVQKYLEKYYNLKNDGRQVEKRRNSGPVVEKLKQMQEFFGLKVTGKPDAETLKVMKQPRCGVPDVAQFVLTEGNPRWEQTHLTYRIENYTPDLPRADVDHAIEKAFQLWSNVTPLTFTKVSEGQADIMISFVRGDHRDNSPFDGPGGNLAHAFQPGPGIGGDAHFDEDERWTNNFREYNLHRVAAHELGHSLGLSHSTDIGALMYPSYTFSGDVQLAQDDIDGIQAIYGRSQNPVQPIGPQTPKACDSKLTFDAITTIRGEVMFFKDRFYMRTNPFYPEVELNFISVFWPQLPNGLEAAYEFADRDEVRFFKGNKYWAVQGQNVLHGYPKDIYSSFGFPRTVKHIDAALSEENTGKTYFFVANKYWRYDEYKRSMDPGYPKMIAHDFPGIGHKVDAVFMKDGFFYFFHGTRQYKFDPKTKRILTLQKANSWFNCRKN
# Method: as §1
# [4] = target: 72 kDa type IV collagenase (Homo sapiens, UniProt P08253)
# Method: as §1
# [5] = target: Matrix metalloproteinase-9 (Homo sapiens, UniProt P14780)
# Method: as §1
# [6] = target: Collagenase 3 (Homo sapiens, UniProt P45452)
# Method: as §1
# Stromelysin-1, sequence (P08254 whole entry): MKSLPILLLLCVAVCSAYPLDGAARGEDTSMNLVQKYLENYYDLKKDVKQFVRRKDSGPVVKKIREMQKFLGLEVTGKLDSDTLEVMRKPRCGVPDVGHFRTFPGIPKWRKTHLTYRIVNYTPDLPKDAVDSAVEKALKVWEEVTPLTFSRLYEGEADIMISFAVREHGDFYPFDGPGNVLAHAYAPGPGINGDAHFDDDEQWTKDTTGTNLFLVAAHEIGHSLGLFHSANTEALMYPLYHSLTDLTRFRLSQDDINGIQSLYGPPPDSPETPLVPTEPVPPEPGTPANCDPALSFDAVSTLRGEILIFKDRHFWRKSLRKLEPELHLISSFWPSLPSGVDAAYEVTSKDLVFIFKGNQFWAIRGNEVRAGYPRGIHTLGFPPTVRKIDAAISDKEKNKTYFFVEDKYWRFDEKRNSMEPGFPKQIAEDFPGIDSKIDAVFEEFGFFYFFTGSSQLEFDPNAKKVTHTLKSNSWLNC
# Neutrophil collagenase, sequence (P22894 whole entry): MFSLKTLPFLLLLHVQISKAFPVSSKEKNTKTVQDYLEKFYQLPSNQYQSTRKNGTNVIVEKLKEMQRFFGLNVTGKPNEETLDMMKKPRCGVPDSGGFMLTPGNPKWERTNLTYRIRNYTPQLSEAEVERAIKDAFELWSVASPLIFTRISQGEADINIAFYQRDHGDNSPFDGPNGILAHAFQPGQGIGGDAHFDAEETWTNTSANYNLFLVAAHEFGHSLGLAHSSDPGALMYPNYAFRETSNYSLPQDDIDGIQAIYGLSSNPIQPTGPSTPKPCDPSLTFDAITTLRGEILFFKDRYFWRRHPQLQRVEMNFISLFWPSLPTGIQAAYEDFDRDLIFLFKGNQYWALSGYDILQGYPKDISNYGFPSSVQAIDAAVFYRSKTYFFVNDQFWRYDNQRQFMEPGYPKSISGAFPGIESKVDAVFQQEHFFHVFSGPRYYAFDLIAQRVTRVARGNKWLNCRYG
# Matrix metalloproteinase-9, sequence (P14780 whole entry): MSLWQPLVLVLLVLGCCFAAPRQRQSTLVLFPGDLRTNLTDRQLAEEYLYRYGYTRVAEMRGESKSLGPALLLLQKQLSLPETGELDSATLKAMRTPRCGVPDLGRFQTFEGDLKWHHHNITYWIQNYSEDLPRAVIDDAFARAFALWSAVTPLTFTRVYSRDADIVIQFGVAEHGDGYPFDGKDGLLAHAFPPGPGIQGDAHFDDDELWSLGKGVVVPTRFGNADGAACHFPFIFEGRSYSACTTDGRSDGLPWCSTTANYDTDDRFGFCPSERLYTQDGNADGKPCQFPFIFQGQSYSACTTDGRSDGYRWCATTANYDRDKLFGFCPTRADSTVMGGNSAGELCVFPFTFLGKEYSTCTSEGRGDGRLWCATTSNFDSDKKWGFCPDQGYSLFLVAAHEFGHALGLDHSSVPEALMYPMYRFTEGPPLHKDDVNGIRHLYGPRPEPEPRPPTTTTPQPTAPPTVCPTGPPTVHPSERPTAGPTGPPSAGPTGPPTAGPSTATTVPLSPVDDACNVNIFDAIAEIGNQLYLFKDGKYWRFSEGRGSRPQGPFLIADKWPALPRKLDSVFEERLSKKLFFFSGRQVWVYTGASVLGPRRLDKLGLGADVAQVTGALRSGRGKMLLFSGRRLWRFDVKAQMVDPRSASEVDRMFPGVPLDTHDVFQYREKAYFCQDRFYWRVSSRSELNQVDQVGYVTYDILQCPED
# 72 kDa type IV collagenase, sequence (P08253 whole entry): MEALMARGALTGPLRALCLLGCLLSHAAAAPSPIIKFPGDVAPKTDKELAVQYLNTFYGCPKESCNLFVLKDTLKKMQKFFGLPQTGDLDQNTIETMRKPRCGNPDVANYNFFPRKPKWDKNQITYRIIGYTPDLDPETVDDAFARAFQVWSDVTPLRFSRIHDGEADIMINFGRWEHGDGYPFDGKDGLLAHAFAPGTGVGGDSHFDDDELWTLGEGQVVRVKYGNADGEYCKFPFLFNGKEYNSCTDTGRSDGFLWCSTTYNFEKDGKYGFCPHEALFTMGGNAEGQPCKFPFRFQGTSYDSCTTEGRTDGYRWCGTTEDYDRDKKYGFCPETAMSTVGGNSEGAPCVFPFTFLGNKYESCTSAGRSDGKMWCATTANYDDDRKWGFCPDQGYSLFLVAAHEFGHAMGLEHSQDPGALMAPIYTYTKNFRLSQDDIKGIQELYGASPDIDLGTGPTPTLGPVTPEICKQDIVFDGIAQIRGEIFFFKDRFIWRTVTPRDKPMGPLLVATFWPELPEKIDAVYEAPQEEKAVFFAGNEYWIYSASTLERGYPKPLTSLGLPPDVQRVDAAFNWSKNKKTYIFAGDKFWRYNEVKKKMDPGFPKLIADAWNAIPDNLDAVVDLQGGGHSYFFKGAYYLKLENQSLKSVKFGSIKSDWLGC
Ki [1],Ki [2],"Ki ([3]; pH 7.5, 25 °C)",Ki [4],Ki [5],Ki [6],Ki [3],Structure (SMILES)
17.5 nM,1.8 nM,800 nM,,,,,O=C(NO)C1(CS(=O)(=O)c2ccc(Oc3ccc(Cl)cc3)cc2)CCOCC1
42.5 nM,3 nM,700 nM,0.3 nM,9 nM,,,O=C(NO)C1(CS(=O)(=O)c2ccc(Oc3ccccc3)cc2)CCN(CCc2ccccc2)CC1
35 nM,,417 nM,0.25 nM,4.5 nM,0.55 nM,,C#CCN1CCC(CS(=O)(=O)c2ccc(Oc3ccccc3)cc2)(C(=O)NO)CC1
,,770 nM,< 0.1 nM,,< 0.1 nM,,O=C(NO)C1(S(=O)(=O)c2ccc(Oc3ccccc3)cc2)CCN(CC2CC2)CC1 [1-(Cyclopropylmethyl)-N-hydroxy-4-[(4-phenoxyphenyl)sulfonyl]piperidine-4-carboxamide Hydrochloride]
,,,,,< 0.1 nM,464 nM,CC(=O)N1CCC(C(=O)NO)(S(=O)(=O)c2ccc(Oc3ccccc3)cc2)CC1 [1-Acetyl-N-hydroxy-4-{[4-(phenoxyphenyl]sulfonyl}-piperidine-4-carboxamide]
23.5 nM,3.5 nM,,0.1 nM,2.5 nM,0.2 nM,> 10000 nM,O=C(NO)C1(S(=O)(=O)c2ccc(Sc3ccccc3)cc2)CCN(C2CC2)CC1 [1-Cyclopropyl-N-hydroxy-4-{[4-(phenylthio)phenyl]-sulfonyl}piperidine-4-carboxamide Hydrochloride]
23 nM,5 nM,,0.4 nM,8 nM,0.6 nM,7300 nM,CC(=O)N1CCC(C(=O)NO)(S(=O)(=O)c2ccc(Sc3ccccc3)cc2)CC1 [1-acetyl-N-hydroxy-4-{[4-(phenylsulfanyl)benzene]sulfonyl}piperidine-4-carboxamide]
0.3 nM,,,0.2 nM,0.6 nM,,,O=C(NO)C1(S(=O)(=O)c2ccc(Oc3ccccc3)cc2)CCN(C2CC2)CC1 [1-cyclopropyl-N-hydroxy-4-[(4-phenoxybenzene)sulfonyl]piperidine-4-carboxamide hydrochloride]
,,,0.8 nM,,0.8 nM,> 10000 nM,CCN1CCC(C(=O)NO)(S(=O)(=O)c2ccc(Sc3ccccc3)cc2)CC1 [1-ethyl-N-hydroxy-4-{[4-(phenylsulfanyl)benzene]sulfonyl}piperidine-4-carboxamide hydrochloride]
18.1 nM,,,0.9 nM,7 nM,0.8 nM,,"C#CCN1CCC(CS(=O)(=O)c2ccc(Oc3ccc(C)c(C)c3)cc2)(C(=O)NO)CC1 [4-({[4-(3,4-Dimethylphenoxy)phenyl]sulfonyl}methyl)-N-hydroxy-1-prop-2-ynylpiperidine-4-carboxamide Hydrochloride]"
18.1 nM,,,< 0.1 nM,,,,O=C(NO)C1(S(=O)(=O)c2ccc(Oc3ccc(Cl)cc3)cc2)CCOCC1 [4-{[4-(4-chlorophenoxy)benzene]sulfonyl}-N-hydroxyoxane-4-carboxamide]
39.3 nM,,,0.5 nM,9.4 nM,0.68 nM,> 10000 nM,CN1CCC(C(=O)NO)(S(=O)(=O)c2ccc(Sc3ccccc3)cc2)CC1 [N-Hydroxy-1-methyl-4-{[4-(phenylthio)phenyl]sulfonyl}-piperidine-4-carboxamide Hydrochloride]
12.6 nM,,274 nM,0.13 nM,0.4 nM,0.22 nM,,"C#CCN1CCC(C(=O)NO)(S(=O)(=O)c2ccc(Oc3ccccc3)cc2)CC1 [N-Hydroxy-4-{[4-(phenoxyphenyl]sulfonyl}-1-(2-propynyl)4-piperidinecarboxamide, Monohydrochloride]"
0.3 nM,,350 nM,0.1 nM,0.7 nM,0.1 nM,,COCCN1CCC(C(=O)NO)(S(=O)(=O)c2ccc(Oc3ccccc3)cc2)CC1 [N-hydroxy-1-(2-methoxyethyl)-4-[(4-phenoxybenzene)sulfonyl]piperidine-4-carboxamide hydrochloride]
20 nM,4 nM,,0.3 nM,3 nM,0.5 nM,> 10000 nM,COCCN1CCC(C(=O)NO)(S(=O)(=O)c2ccc(Sc3ccccc3)cc2)CC1 [N-hydroxy-1-(2-methoxyethyl)-4-{[4-(phenylsulfanyl)benzene]sulfonyl}piperidine-4-carboxamide hydrochloride]
18.1 nM,,330 nM,0.2 nM,1.1 nM,0.4 nM,,COc1cccc(CN2CCC(CS(=O)(=O)c3ccc(Oc4ccccc4)cc3)(C(=O)NO)CC2)c1 [N-hydroxy-1-[(3-methoxyphenyl)methyl]-4-{[(4-phenoxybenzene)sulfonyl]methyl}piperidine-4-carboxamide hydrochloride]
,,,0.3 nM,1 nM,0.5 nM,800 nM,CS(=O)(=O)N1CCC(C(=O)NO)(S(=O)(=O)c2ccc(Oc3ccccc3)cc2)CC1 [N-hydroxy-1-methanesulfonyl-4-[(4-phenoxybenzene)sulfonyl]piperidine-4-carboxamide]
32 nM,4 nM,,2 nM,14.7 nM,2.6 nM,> 10000 nM,CS(=O)(=O)N1CCC(C(=O)NO)(S(=O)(=O)c2ccc(Sc3ccccc3)cc2)CC1 [N-hydroxy-1-methanesulfonyl-4-{[4-(phenylsulfanyl)benzene]sulfonyl}piperidine-4-carboxamide]
,,464 nM,< 0.1 nM,0.29 nM,0.1 nM,,CN1CCC(C(=O)NO)(S(=O)(=O)c2ccc(Oc3ccccc3)cc2)CC1 [N-hydroxy-1-methyl-4-[(4-phenoxybenzene)sulfonyl]piperidine-4-carboxamide hydrochloride]
,,,2.6 nM,,5.1 nM,6600 nM,O=C(CS(=O)(=O)c1ccc(Oc2ccccc2)cc1)NO [N-hydroxy-2-[(4-phenoxybenzene)sulfonyl]acetamide]
,,,0.1 nM,,0.25 nM,220 nM,CC(C)(C(=O)NO)S(=O)(=O)c1ccc(Oc2ccccc2)cc1 [N-hydroxy-2-methyl-2-[(4-phenoxybenzene)sulfonyl]propanamide]
59 nM,3.5 nM,1060 nM,0.22 nM,5 nM,0.37 nM,,O=C(NO)C1(S(=O)(=O)c2ccc(Oc3ccccc3)cc2)CCNCC1 [N-hydroxy-4-[(4-phenoxybenzene)sulfonyl]piperidine-4-carboxamide]
,,,0.15 nM,,0.3 nM,> 10000 nM,C=CCN1CCC(C(=O)NO)(S(=O)(=O)c2ccc(Sc3ccccc3)cc2)CC1 [N-hydroxy-4-{[4-(phenylsulfanyl)benzene]sulfonyl}-1-(prop-2-en-1-yl)piperidine-4-carboxamide hydrochloride]
13 nM,1.8 nM,,0.33 nM,,,8660 nM,C#CCN1CCC(C(=O)NO)(S(=O)(=O)c2ccc(Sc3ccccc3)cc2)CC1 [N-hydroxy-4-{[4-(phenylsulfanyl)benzene]sulfonyl}-1-(prop-2-yn-1-yl)piperidine-4-carboxamide hydrochloride]
158 nM,2.4 nM,2400 nM,2.8 nM,30 nM,8 nM,,O=C(NO)C1(CS(=O)(=O)c2ccc(Oc3ccccc3)cc2)CCNCC1 [N-hydroxy-4-{[(4-phenoxybenzene)sulfonyl]methyl}piperidine-4-carboxamide hydrochloride]
,,475 nM,0.2 nM,,0.2 nM,,CC(C)(C)OC(=O)N1CCC(CS(=O)(=O)c2ccc(Oc3ccccc3)cc2)(C(=O)NO)CC1 [tert-Butyl 4-[(Hydroxyamino)carbonyl]-4-{[(4-phenoxyphenyl)sulfonyl]methyl}piperidine-1-carboxylate]
,,1140 nM,0.2 nM,,0.3 nM,,CC(C)(C)OC(=O)N1CCC(C(=O)NO)(S(=O)(=O)c2ccc(Oc3ccccc3)cc2)CC1 [tert-butyl 4-(hydroxycarbamoyl)-4-[(4-phenoxybenzene)sulfonyl]piperidine-1-carboxylate]
